Reference: ChEMBL document CHEMBL1127782, “Non-peptidic inhibitors of human leukocyte elastase. 1. The design and synthesis of pyridone-containing inhibitors” (J Med Chem, 1994)

Target: T1, Neutrophil elastase (Homo sapiens, UniProt P08246)
T1 sequence (P08246 whole entry): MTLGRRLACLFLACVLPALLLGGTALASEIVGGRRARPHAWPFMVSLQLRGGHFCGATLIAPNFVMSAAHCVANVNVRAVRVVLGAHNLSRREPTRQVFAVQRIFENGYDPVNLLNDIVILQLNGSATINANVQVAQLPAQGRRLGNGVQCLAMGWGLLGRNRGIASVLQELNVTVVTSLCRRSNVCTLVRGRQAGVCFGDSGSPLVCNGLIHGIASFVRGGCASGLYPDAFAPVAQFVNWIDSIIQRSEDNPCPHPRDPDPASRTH
Test: The compound was tested in vitro for ability to inhibit human leukocyte elastase activity

Row | Ki [nM] | Structure (SMILES)
1 | 2700 | CC(C)C(NC(=O)Cn1cccc(N)c1=O)C(=O)C(F)(F)F (configuration not stated)
2 | 88 | COC(=O)c1ccc(Cc2cc(NC(=O)OCc3ccccc3)c(=O)n(CC(=O)NC(C(=O)C(F)(F)F)C(C)C)c2)cc1 (configuration not stated)
3 | 32 | CC(C)C(NC(=O)Cn1cc(Cc2ccc(OC(=O)C(C)(C)C)cc2)cc(NC(=O)OCc2ccccc2)c1=O)C(=O)C(F)(F)F (configuration not stated)
4 | 3400 | CCOC(=O)CC(=O)Nc1cccn(CC(=O)NC(C(=O)C(F)(F)F)C(C)C)c1=O (configuration not stated)
5 | 36 | CC(C)C(NC(=O)Cn1cc(Cc2cccc(NC(=O)C(F)(F)F)c2)cc(NC(=O)OCc2ccccc2)c1=O)C(=O)C(F)(F)F (configuration not stated)
6 | 87 | CC(C)C(NC(=O)Cn1cc(Cc2cccc(F)c2)cc(NC(=O)OCc2ccccc2)c1=O)C(=O)C(F)(F)F (configuration not stated)
7 | 70 | COC(=O)C(=O)Nc1cc(Cc2ccccc2)cn(CC(=O)NC(C(=O)C(F)(F)F)C(C)C)c1=O (configuration not stated)
8 | 34 | CC(C)C(NC(=O)Cn1cc(Cc2ccc(O)cc2)cc(NC(=O)OCc2ccccc2)c1=O)C(=O)C(F)(F)F (configuration not stated)
9 | 15000 | CC(C)C(NC(=O)Cn1cccc([N+](=O)[O-])c1=O)C(=O)C(F)(F)F (configuration not stated)
10 | 71 | CC(C)C(NC(=O)Cn1cc(Cc2ccc(F)cc2)cc(NC(=O)OCc2ccccc2)c1=O)C(=O)C(F)(F)F (configuration not stated)
11 | 12 | CC(C)C(NC(=O)Cn1cc(Cc2cccc(OC(=O)C(C)(C)C)c2)cc(NC(=O)OCc2ccccc2)c1=O)C(=O)C(F)(F)F (configuration not stated)
12 | 48 | CC(C)C(NC(=O)Cn1cc(Cc2ccccc2)cc(NC(=O)C(=O)O)c1=O)C(=O)C(F)(F)F (configuration not stated)
13 | 51 | CC(C)C(NC(=O)Cn1cc(Cc2ccccc2)cc(NC(=O)C(N)=O)c1=O)C(=O)C(F)(F)F (configuration not stated)
14 | 350 | CC(C)C(NC(=O)Cn1cccc(NC(=O)C(=O)O)c1=O)C(=O)C(F)(F)F (configuration not stated)
15 | 42 | CC(=O)Oc1cccc(Cc2cc(NC(=O)OCc3ccccc3)c(=O)n(CC(=O)NC(C(=O)C(F)(F)F)C(C)C)c2)c1 (configuration not stated)
16 | 89 | CC(C)C(NC(=O)Cn1cc(Cc2cccc(O)c2)cc(NC(=O)OCc2ccccc2)c1=O)C(=O)C(F)(F)F (configuration not stated)
17 | 500 | COC(=O)C(=O)Nc1cccn(CC(=O)NC(C(=O)C(F)(F)F)C(C)C)c1=O (configuration not stated)
18 | 47 | CC(C)C(NC(=O)Cn1cc(Cc2ccc(C(F)(F)F)cc2)cc(NC(=O)OCc2ccccc2)c1=O)C(=O)C(F)(F)F (configuration not stated)
19 | 40 | CC(C)C(NC(=O)Cn1cc(Cc2ccccc2)cc(NC(=O)OCc2ccccc2)c1=O)C(=O)C(F)(F)F (configuration not stated)
20 | 320 | CC(C)C(NC(=O)Cn1cccc(NC(=O)C(N)=O)c1=O)C(=O)C(F)(F)F (configuration not stated)
21 | 280 | CC(C)C(NC(=O)Cn1cccc(NC(=O)OCc2ccccc2)c1=O)C(=O)C(F)(F)F (configuration not stated)
22 | 2600 | CC(C)C(NC(=O)Cn1cccc(NC(=O)CC(=O)O)c1=O)C(=O)C(F)(F)F (configuration not stated)
